This is an account of results in patent publication US20230144898A1, “INHIBITOR OF ASPARTIC ACID SYNTHESIS IN TUMOR CELLS, INHIBITOR OF SPHEROID FORMATION OF TUMOR CELLS, INHIBITOR OF TUMOR CELL METASTASIS, ACTIVITY ENHANCER OF GLYCOLYTIC INHIBITOR, AND PHARMACEUTICAL COMPOSITION FOR SUPPRESSING AND/OR PREVENTING TUMOR METASTASIS” (CCI HOLDINGS INC., priority 2020, published 2023).

In series [1] the test system is B16F10 cells. Briefly: Influence on anticancer action of 2-DG, cell viability (Test Example 3). It counts as cell-based, mouse. The note with it: neopetasin 0.3 µM or 3 µM with 2-DG, 36 hours. On the procedure:
Specifically, to start with, B16F10 cells were seeded in a six-well plate in an amount of 0.5×10^5 cells/mL. Next, after 24 hours starting from seeding, 2-DG (concentration changed from 3 mM to 3 nM) was added and simultaneously treated with neopetasin at a concentration of 0.3 µM or 3 µM. Then, after 36 hours starting from this treatment, the cell viability was measured through the same method as in Test Example 1. Moreover, as a negative control section, DMSO was administered to perform the same experiment.

Series [2] has as its system B16F10 cells. Briefly: Lung metastasis of cells pre-treated in vitro, tail vein injection (Test Example 13). Format: in vivo, mouse. Conditions: cells reacted with 3 µM in vitro; two-week non-treatment period. As for the experimental part: In this test example, neopetasin (NP) was previously reacted with B16F10 cells that are derived from the mouse melanoma at a concentration of 3 µM in vitro. Thereafter, the uniform numbers of living cells were injected into the tail vein of the mice, and thereafter, no treatment was performed, and the number of metastasis lesions formed in the lung after a two-week non-treatment period was counted. The protocol of the present test example is shown in FIG. 19, and the graph showing the results of the present test example and the observation photograph of the extracted lung are shown in FIG. 20. […] Here, if neopetasin (NP) were reducing the number of lung metastasis lesions as part of the proliferation inhibitory effect on tumor cells (in other words, lung metastasis is suppressed as part of the proliferation inhibitory effect), equivalent formation of metastasis lesions should be observed in both neopetasin (NP)-administered group and the control (DMSO-administered group) during the non-treatment period in which the proliferation inhibitory effect is not exerted. However, in reality, as described above, formation of a new metastatic lesion has not been confirmed even after the non-treatment period in neopetasin (NP)-administered group.

For series [3], the system named is B16F10 cells. The experiment in a line: Mouse malignant melanoma lung metastasis model (Test Example 2). Format: in vivo. Conditions: 50 mg/kg intraperitoneally once every two days, 5 times; after 10 days. On the procedure:
Using the mouse malignant melanoma lung metastasis model, the metastasis inhibitory effect of neopetasin on tumor cells was examined. Specifically, C57BL/6 mice (6 weeks old, female) were purchased from Japan SLC (Hamamatsu). Then, the B16F10 cells were intravenously administered from tail vein in an amount of 0.25×10^6 cells/100 µL PBS. Then, from the day when the cells were seeded, neopetasin (50 mg/kg) was intraperitoneally administered once every two days (5 times in total). After 10 days from the start of administration, the lungs were dissected and extracted, and the number of metastasis lesions observed on the lung surface was counted. In addition, the P value was calculated using Student’s T-test using the GraphPad Prism software system (GraphPad software Inc) .

Series [4] has as its system ASF4-1 cells (normal human skin-derived fibroblasts). The experiment in a line: Proliferation inhibition, normal fibroblasts compared with tumor cells (Test Example 1). It counts as cell-based. As for the experimental part: First, CMeCl cells (canine malignant melanoma cells) were seeded in a six-well plate so as to be 0.5×10^5 cells/mL, and after 24 hours therefrom, each of the above four kinds of compounds (final concentration: 0.01 to 100 µg/mL) was suspended in the medium at a ratio of 0.1% and incubated for 72 hours. 72 hours after the start of culture, the number of viable cells was measured by trypan blue staining. At this time, viable cells (cell viability%) were calculated as the relative number of cells when the number of viable cells in a negative control section (DMSO treatment) was taken as 100%. Then, IC50 was calculated using a GraphPad Prism software system (GraphPad Software Inc.).
Furthermore, the results of the same test as described above using ASF4-1 cells, which are normal human skin-derived fibroblasts, and A2058 cells, which are human malignant melanoma cells, are shown in FIG. 1C in comparison with the case of using B16F10 cells.

Series [5] can be described thus: Cell proliferation inhibition assay (Test Example 14). It counts as cell-based. Conditions: compared with petasin, S-petasin and S-neopetasin. On the procedure:
In this test example, IC50 values in the cell proliferation inhibition assay for petasin, neopetasin, S-petasin and S-neopetasin were measured in addition to the Petasites japonicus extract (whole extract).

Series [6] deals with B16F10 cells. The experiment in a line: Metabolomic analysis (amino acids) by CE-TOFMS (Test Example 7). Format: cell-based, mouse. On the procedure:
The metabolomic analysis (amino acids) of neopetasin-treated B16F10 cells was performed. Specifically, for B16F10 cells treated with neopetasin (3 µM) through the same method as in Test Example 1, the cells were recovered at each time point of 9 hours and 48 hours after the treatment, and amino acid concentration was measured using a capillary electrophoresis-time of flight mass spectrometer (CE-TOFMS). Furthermore, the amino acid concentration in the sample was measured according to an internal standard calibration method, and the internal standard concentration in the sample was calculated as 25 µM. Moreover, for the analysis, Master Hands ver. 2.17.3.18 (Institute for Advanced Biosciences, Keio University) was used.

In the next series the test system is A2058 cells. Briefly: KEGG Pathway analysis using microarray (Test Example 6). It counts as cell-based, human. Conditions: 3 µM, 8 hours. As for the experimental part: The signaling pathways affected by neopetasin treatment were examined by KEGG Pathway analysis using the microarray. Specifically, A2058 cells were seeded at 0.5×10^5 cells/mL in a six-well plate, and after 24 hours of seeding, neopetasin (final concentration: 3 µM) was suspended in a medium and incubated for 8 hours. A2058 cells thus treated with neopetasin (3 µM) for 8 hours were recovered with a cell scraper. Furthermore, DMSO was administered to the negative control section, and the same experiment was performed. Next, data was collected using SurePrint G3 Human CGH microarray 8x60K (Agilent, CA, USA) and the raw data obtained for each sample was normalized with 75 percentile values (global normalization). Then, using Gene Set Enrichment Analysis (GSEA, Broad Laboratory, Massachusetts Institute of Technology, MA, USA), pathways registered in KEGG, Reactome, and GO were searched.
In FIG. 7, the genes with increased expression are shown in red, the gene groups with decreased expression are shown in blue, and the gene groups with changes therebetween are shown in white. […] In addition, when the heat map was drawn, gene groups included in the variable pathways were extracted, and the log-transformed signal data was subjected to cluster analysis by Ward’s method using JMP version 12.2.0 (SAS Institute Inc.).

“Also recorded” adds a separate entry of the source.

Take `C=C(C)[C@H]1C[C@@]2(C)C(=CC1=O)CC[C@@H](OC(=O)/C(C)=C\C)[C@@H]2C` [Neopetasin, neopetasin]: the “anticancer action of 2-DG on addition of neopetasin” value in the series on B16F10 cells [1] was “enhanced in a concentration-dependent manner”. Besides, the “formation of metastasis lesions in lung” value in the series with B16F10 cells [2] is recorded as “formation of metastasis lesions was not observed”. Also, the “lung metastasis (number of metastasis lesions on the lung surface)” value with B16F10 cells [3] is “extremely potently suppressed lung metastasis; also recorded: inhibited lung metastasis”. In addition, the “inhibitory effect on proliferation of / cytotoxicity to normal cells” value in series [4] (ASF4-1 cells) is given as “hardly exhibits the inhibitory effect on proliferation of normal cells; also recorded: shows no cytotoxicity”. Also, the “IC50 for ASF4-1 cells (normal cells) relative to IC50 for tumor cells” value in series [4] (versus A2058 cells and B16F10 cells) is not below 1000 fold. Further, the “cell proliferation inhibition activity (IC50 comparison)” value in series [5] is given as “superior cell proliferation inhibition activity to the other three compounds”. In addition, the “concentration of aspartic acid (Asp) in the sample” value in the series on B16F10 cells [6] (3 µM, after 9 hours) is “strongly reduced”. The “aspartic acid synthesis, remaining fraction” value in the series with B16F10 cells [6] (summary statement) is recorded as “⅒”. In the series with A2058 cells, the “changes in asparagine synthetase (ASNS) and cystathionine gamma-lyase (CTH)” value is “particularly significant changes”; the “expression of molecules involved in amino acid metabolism” value is “greatly varies”.
